# Values of other authors, collected in publication PMC5346970 (Journal of Medicinal Chemistry, 2017).
# Several values for one entry are separate records, joined by “and”; a condition that tells them apart may be missing. Equal entries are not always repeated. Where two headings read alike, the source gives them in different places.
# Experiments:
# [1] = for conjugate level in blood: 3.6 g daily dose, all six subjects
# Alzheimer’s disease = conditions: for mean plasma level three hours post-treatment / mean baseline plasma level at 24 weeks: LC/MS/MS; for mean plasma level three hours post-treatment: 24 weeks
# [2] = synthetic 1, rats
# [3] = depending on solvent and method
# [4] = room temperature, neutral pH
# [5] = system: murine macrophage cells, J774.1; conditions: read-out: cytotoxicity IC50; murine macrophage cell line
# [6] = system: histone methyltransferase G9a; conditions: counterscreen
# HAT Gcn5 = conditions: in vitro
# GSK-3β = conditions: no DTT, 30–90 min incubation
# [7] = system: amyloid-β (Aβ) fibril formation; conditions: ThT assay
# Aβ = conditions: transmission electron microscopy, in vitro
# [8] = system: SERCA (sarcoplasmic/endoplasmic reticulum calcium) pump; conditions: previously reported
# mutant CFTR (ΔF508 mice) = conditions: 45 mg kg^–1 day^–1 oral; not reproduced by independent lab (ref 139)
# [9] = system: cannabinoid receptor 1 (CB1); conditions: repeated experiments after retraction
# CB2 = conditions: repeated experiments after retraction
# [10] = at 2 h, one individual, single 12 g oral dose
# [11] = system: advanced pancreatic cancer; conditions: 8 g/day oral, steady state on day 3
# [12] = mice fed diets poor in iron
compound,measurement,setting,value
O=S(=O)(O)O [Sulfate],conjugate level in blood,[1],8.9 ± 0.7 nmol/L
COc1cc(/C=C/C(=O)CC(=O)/C=C/c2ccc(O[C@@H]3O[C@H](C(=O)O)[C@@H](O)[C@H](O)[C@H]3O)c(OC)c2)ccc1O [glucuronidated 1],conjugate level in blood,[1],15.8 ± 0.9 nmol/L
same,mean plasma level three hours post-treatment,Alzheimer’s disease,96.05 ± 26 ng/mL
COc1cc(CCC(=O)CC(=O)CCc2ccc(OC3OC(C(=O)O)C(O)C(O)C3O)c(OC)c2)ccc1O (centres unmarked) [glucuronidated tetrahydrocurcumin],mean plasma level three hours post-treatment,Alzheimer’s disease,298.2 ± 140.0 ng/mL
COc1cc(CCC(=O)CC(=O)CCc2ccc(O)c(OC)c2)ccc1O [tetrahydrocurcumin],mean baseline plasma level at 24 weeks,Alzheimer’s disease,6.86 ± 1.69 ng/mL
same,mean plasma level three hours post-treatment,Alzheimer’s disease,3.73 ± 2.0 ng/mL
"(1E,6E)-1,7-bis(4-hydroxy-3-methoxyphenyl)-1,6-heptadiene-3,5-dione [Compound 1]",t1/2 for loss of parent compound,"pH 7.5, rt, aqueous buffer",approximately 20 min
same,reduction in parent material,samples prepared in clear versus amber glass,5%
same,compound degradation,"solvolysis in aqueous alkaline buffer, within 30 min",90%
same,oral bioavailability,[2],less than 1%
same,"pKa, first phenolic proton",[3],8.5–10.4
same,"pKa, second phenolic proton",[3],9.5–10.7
same,solubility in water,[4],practically insoluble
same,solubility in water (estimate),[4]; confounded by aggregation,1 to 10 µg/mL
same,IC50,AmpC β-lactamase; with Triton X-100,> 30 µM
same,IC50,AmpC β-lactamase; without Triton X-100,12 µM
same,IC50,malate dehydrogenase; with Triton X-100,> 30 µM
same,IC50,malate dehydrogenase; without Triton X-100,9 µM
same,IC50,HIV-2 protease; with Triton X-100,> 100 µM
same,IC50,HIV-2 protease; without Triton X-100,9 µM
same,Papp,Caco-2 model system,3.18 × 10^–6 ± 1.08 × 10^–6 cm/s
same,IC50,[5],31 µM
same,activity versus PCAF,HAT PCAF; counterscreen,failed to show any activity
same,inhibition of PCAF,HAT PCAF; in vitro,failed to inhibit
same,activity versus G9a,[6],failed to show any activity
same,inhibition of Gcn5,HAT Gcn5,failed to inhibit
same,IC50,GSK-3β,0.066 µM
same,activity in FP secondary screen,tau fibril formation,inactive
same,IC50,[7],1 to 64 µM
same,effect on aggregation of Aβ,Aβ,does not affect the aggregation
same,in vitro activity,[8],5 to 15 µM
same,effect on phenotypic deficits,mutant CFTR (ΔF508 mice),ameliorated phenotypic deficits
same,inhibition of CB1,[9],low micromolar inhibitor
same,inhibition of CB2,CB2,low micromolar inhibitor
same,peak serum level,[10],57.6 ng/mL and 156 nmol/L
same,level in blood as reported,"[1]; 3.6 g daily, 1 h time point",0.6 nM
same,mean baseline plasma level at 24 weeks,Alzheimer’s disease,2.67 ± 1.69 ng/mL
same,mean plasma level three hours post-treatment,Alzheimer’s disease,7.76 ± 3.23 ng/mL
same,plasma level by HPLC,"Alzheimer’s disease; one sample, 4 h after a 4 g dose, below assay LLOD",6 ng/mL
same,plasma level,[11],22 to 41 ng/mL
same,iron status,[12],inducing a state of overt iron deficiency
